For series [1], the target named is T1, Class 1 phosphodiesterase PDEB1 (Trypanosoma brucei) (UniProt Q8WQX9).
T1 sequence (whole entry): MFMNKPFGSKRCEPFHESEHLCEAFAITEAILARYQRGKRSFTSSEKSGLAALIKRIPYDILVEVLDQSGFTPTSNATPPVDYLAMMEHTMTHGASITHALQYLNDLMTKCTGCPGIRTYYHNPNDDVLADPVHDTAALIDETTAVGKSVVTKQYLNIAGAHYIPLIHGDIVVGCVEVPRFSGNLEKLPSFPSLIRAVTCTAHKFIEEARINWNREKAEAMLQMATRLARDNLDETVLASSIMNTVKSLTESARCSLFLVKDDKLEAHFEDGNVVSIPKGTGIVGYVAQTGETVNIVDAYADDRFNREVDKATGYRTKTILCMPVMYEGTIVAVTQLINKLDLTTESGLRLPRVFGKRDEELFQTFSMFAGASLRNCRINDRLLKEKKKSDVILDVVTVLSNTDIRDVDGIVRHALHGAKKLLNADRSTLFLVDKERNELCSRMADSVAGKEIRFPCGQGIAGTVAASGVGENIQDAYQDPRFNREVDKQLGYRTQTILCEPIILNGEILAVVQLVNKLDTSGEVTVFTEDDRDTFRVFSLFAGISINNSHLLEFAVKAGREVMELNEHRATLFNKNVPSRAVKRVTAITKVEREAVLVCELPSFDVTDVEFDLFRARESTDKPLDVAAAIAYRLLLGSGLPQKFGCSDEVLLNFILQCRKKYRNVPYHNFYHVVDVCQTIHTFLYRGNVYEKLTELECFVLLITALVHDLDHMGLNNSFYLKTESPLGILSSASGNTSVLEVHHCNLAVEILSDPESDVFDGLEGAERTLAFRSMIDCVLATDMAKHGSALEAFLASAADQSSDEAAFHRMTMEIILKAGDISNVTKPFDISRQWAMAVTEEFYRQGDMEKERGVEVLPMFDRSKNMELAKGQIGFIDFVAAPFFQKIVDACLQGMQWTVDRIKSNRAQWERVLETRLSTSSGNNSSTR
The experiment in a line: Inhibition of Trypanosoma brucei recombinant PDEB1 at 10 uM pre-incubated for 5 mins prior to substrate addition.

For series [2], the target named is T2, Class 1 phosphodiesterase PDEB1 (Trypanosoma brucei, UniProt Q8WQX9).
T2 sequence (Q8WQX9 whole entry): T1 sequence (whole entry)
As to the kind of experiment: Inhibition of Trypanosoma brucei recombinant PDEB1 pre-incubated for 5 mins prior to substrate addition.

Series [3] is described as follows: Cytotoxicity against mouse NIH/3T3 cells by Alamar blue cell viability assay. Type of series: cell-based, NIH3T3. Conditions: read-out: TC50 (the source's name).
The next series has as its system Trypanosoma brucei. As to the kind of experiment: Antiparasitic activity against Trypanosoma brucei after 22 to 24 hrs by Alamar blue cell viability assay. Type of series: functional, organism-based. In general terms: Alamar Blue is a resazurin reagent that responds to reducing activity.
Series [4] is described as follows: Inhibition of Trypanosoma brucei PDEB2.

For orientation: inhibition means how much of the control response was suppressed. For the molecule `COc1ccc([C@]2(C#N)CC[C@@H](C(=O)OC)CC2)cc1OC1CCCC1`, the inhibition in series [1] came to 31%.

In the case of `COc1ccc([C@]2(C#N)CC[C@H](C(=O)O)CC2)cc1OC1CCCC1`, in series [1], the inhibition came out at 9.3%.

By IC50 is commonly meant the concentration that inhibits the measured activity by half. As to `COc1ccc([C@]2(C#N)CC[C@@H](C(=O)O)CC2)cc1OCc1ccccc1`, the inhibition in series [1] came out at 77%. Also, the IC50 in series [2] stood at 12 µM.

In the case of `COc1ccc([C@]2(C#N)CC[C@@H](C(=O)O)CC2)cc1OCCCOc1ccccc1`, the inhibition in series [1] turned out to be 66%. In addition, in series [2], the IC50 is 11 µM.

As for `COc1ccc([C@]2(C#N)CC[C@@H](C(=O)O)CC2)cc1OCCCCOc1ccc(-c2nn[nH]n2)cc1`, the inhibition in series [1] is 69%. The IC50 in series [2] was 7.9 µM.

For the molecule `COc1ccc([C@]2(C#N)CC[C@H](C(=O)O)CC2)cc1OCc1ccccc1`, in series [1], the inhibition was found to be 20%.

Consider `COc1ccc(C2(C#N)CCNCC2)cc1OC1CCCC1`, for which, in series [1], the inhibition was 19%.

With `COc1ccc([C@]2(C#N)CC[C@@H](C(=O)O)CC2)cc1OCCCCOc1ccc(C)cc1`, the inhibition in series [1] is 74%. The IC50 in series [2] was 4.9 µM.

Regarding `COc1ccc([C@]2(C#N)CC[C@@H](C(=O)OC)CC2)cc1OCc1ccccc1`, the inhibition in series [1] was determined as 40%.

Turning to `COc1ccc([C@]2(C#N)CC[C@@H](C(=O)O)CC2)cc1OCc1ccncc1`, the inhibition in series [1] was 11%.

Regarding `COc1ccc([C@]2(C#N)CC[C@@H](C(=O)O)CC2)cc1OCCCCOc1ccc(C#N)cc1`, the inhibition in series [1] turned out to be 87%. Besides, in series [2], the IC50 was 3.6 µM.

In the case of `COc1ccc([C@]2(C#N)CC[C@@H](C(=O)O)CC2)cc1OCc1ccccn1`, the inhibition in series [1] was found to be 33%.

Take `COc1ccc([C@]2(C#N)CC[C@@H](C(=O)O)CC2)cc1OCCCCCOc1ccccc1`: the inhibition in series [1] came to 54%. Further, in series [2], the IC50 was found to be 9.8 µM.

Regarding `COc1ccc([C@]2(C#N)CC[C@H](C(=O)OC)CC2)cc1OC1CCCC1`, the inhibition in series [1] amounted to 26%.

For the molecule `COc1ccc(OCCCCOc2cc([C@]3(C#N)CC[C@@H](C(=O)O)CC3)ccc2OC)cc1`, the inhibition in series [1] was 79%. In addition, the IC50 in series [2] was determined as 3.5 µM.

`COc1ccc([C@]2(C#N)CC[C@@H](C(=O)O)CC2)cc1OCCCCOc1ccc(F)cc1`: the inhibition in series [1] turned out to be 79%. The IC50 in series [2] turned out to be 9.2 µM.

What is called EC50 is the concentration needed to bring the measured effect to its halfway point. Regarding `COc1ccc([C@]2(C#N)CC[C@@H](C(=O)O)CC2)cc1OCCCCOc1ccccc1`, the inhibition in series [1] worked out at 96%. Besides, in series [3], the CC50 was greater than 50 µM. Besides, the midpoint of the response with Trypanosoma brucei, the EC50, lay at 26 µM. In addition, in series [4], the IC50 stood at 2.1 µM.

For `COc1ccc([C@]2(C#N)CC[C@H](C(=O)OC)CC2)cc1OCc1ccccc1`, in series [1], the inhibition was found to be 28%.

For the molecule `CCOC(=O)CN1CCC(C#N)(c2ccc(OC)c(OC3CCCC3)c2)CC1`, the inhibition in series [1] came to 6%.

For the molecule `COc1ccc([C@]2(C#N)CC[C@@H](C(=O)O)CC2)cc1OC1CCCC1` [CILOMILAST], in series [2], the IC50 came out at 16 µM. Further, in series [3], the CC50 is greater than 50 µM. In the series with Trypanosoma brucei, this molecule displayed an EC50 greater than 50 µM.

In the case of `COc1ccc(C2(C#N)CCN(CC(=O)O)CC2)cc1OC1CCCC1`, the inhibition in series [1] came out at 11%.

The values are drawn from ChEMBL document CHEMBL3352078, “Repurposing human PDE4 inhibitors for neglected tropical diseases: design, synthesis and evaluation of cilomilast analogues as Trypanosoma brucei PDEB1 inhibitors” (Bioorg Med Chem Lett, 2014).
